Data as given in PubChem BioAssay AID234 (DTP/NCI, 2004).
Several values for one entry are separate records, joined by “and”; a condition that tells them apart may be missing. Equal entries are not always repeated. Records with an inconclusive call do not appear.

Test system: C3AKF1 mice, hamster liver cystadenocarcinoma s.c., tumor weight T/C
Assay: NCI In Vivo Anticancer Drug Screen. Data for tumor model Cystadenocarcinoma, Liver (No. 1) (Hamster) (subcutaneous) in C3AKF1 (CHKRF1) mice
Details: endpoint: mean tumor weight, schedule: Q01DX010 (ip), higher = larger tumour
Method: The antitumor activity of compounds was measured in mice bearing transplantable tumors. Survival or tumor size were measured and the results are expressed as the measurement made in the treated group (T) divided by the measurement made in the vehicle treated control group (C). The tumor model used in this assay is Cystadenocarcinoma, Liver (No. 1) (Hamster) (subcutaneous) in C3AKF1 (CHKRF1) mice

[1] = dose: 12.0 mg/kg/injection, vehicle: saline
[2] = dose: 50.0 mg/kg/injection, vehicle: carboxymethylcellulose (CMC)
[3] = dose: 100.0 mg/kg/injection, vehicle: carboxymethylcellulose (CMC)
[4] = dose: 200.0 mg/kg/injection, vehicle: carboxymethylcellulose (CMC)
[5] = dose: 400.0 mg/kg/injection, vehicle: carboxymethylcellulose (CMC)
[6] = dose: 600.0 mg/kg/injection, vehicle: carboxymethylcellulose (CMC)
[7] = dose: 25.0 mg/kg/injection, vehicle: carboxymethylcellulose (CMC)
[8] = dose: 62.5 mg/kg/injection, vehicle: carboxymethylcellulose (CMC)
[9] = dose: 125.0 mg/kg/injection, vehicle: carboxymethylcellulose (CMC)
[10] = dose: 250.0 mg/kg/injection, vehicle: carboxymethylcellulose (CMC)
[11] = dose: 500.0 mg/kg/injection, vehicle: carboxymethylcellulose (CMC)
[12] = dose: 1.25 mg/kg/injection, vehicle: carboxymethylcellulose (CMC)
[13] = dose: 2.5 mg/kg/injection, vehicle: carboxymethylcellulose (CMC)
[14] = dose: 5.0 mg/kg/injection, vehicle: carboxymethylcellulose (CMC)
[15] = dose: 10.0 mg/kg/injection, vehicle: carboxymethylcellulose (CMC)
[16] = dose: 20.0 mg/kg/injection, vehicle: carboxymethylcellulose (CMC)
[17] = dose: 8.0 mg/kg/injection, vehicle: carboxymethylcellulose (CMC)
[18] = dose: 16.0 mg/kg/injection, vehicle: carboxymethylcellulose (CMC)
[19] = dose: 30.0 mg/kg/injection, vehicle: carboxymethylcellulose (CMC)
[20] = dose: 15.0 mg/kg/injection, vehicle: carboxymethylcellulose (CMC)
[21] = dose: 19.0 mg/kg/injection, vehicle: carboxymethylcellulose (CMC)
[22] = dose: 37.5 mg/kg/injection, vehicle: carboxymethylcellulose (CMC)
[23] = dose: 75.0 mg/kg/injection, vehicle: carboxymethylcellulose (CMC)
[24] = dose: 40.0 mg/kg/injection, vehicle: carboxymethylcellulose (CMC)

CCC[CH2][Sn]([CH2]CCC)([CH2]CCC)[O]C(=O)CC[S][Sn]([CH2]CCC)([CH2]CCC)[CH2]CCC
T/C (dose: 0.75 mg/kg/injection, vehicle: saline): 111 % of control
T/C (dose: 1.5 mg/kg/injection, vehicle: saline): 77 % of control
T/C (dose: 3.0 mg/kg/injection, vehicle: saline): 100 % of control
T/C (dose: 6.0 mg/kg/injection, vehicle: saline): 83 % of control and 84 % of control
T/C [1]: 92 % of control
T/C (dose: 24.0 mg/kg/injection, vehicle: saline): 93 % of control

Nc1nc(N)c(N=Nc2ccccc2)c(=O)[nH]1
T/C [2]: 100 % of control
T/C [3]: 110 % of control
T/C [4]: 93 % of control
T/C [5]: 100 % of control

S=c1c2[nH]cnc2ncn1CCSC1=NC=NC2=NC=NC21 (stereo not given)
T/C [3]: 95 % of control
T/C [4]: 100 % of control
T/C [5]: 97 % of control
T/C [6]: 93 % of control

O=[n+]1c2c(n([O-])c3ccccc31)-c1cccc3cccc-2c13
T/C [7]: 64 % of control
T/C [2]: 74 % of control
T/C [3]: 48 % of control

CCCCCCCCCCCC[n+]1cccc2ccccc21
T/C (dose: 0.25 mg/kg/injection, vehicle: carboxymethylcellulose (CMC)): 73 % of control
T/C (dose: 0.5 mg/kg/injection, vehicle: carboxymethylcellulose (CMC)): 81 % of control
T/C (dose: 1.0 mg/kg/injection, vehicle: carboxymethylcellulose (CMC)): 91 % of control

ClCCn1cnc2c(SCc3ccccc3)ncnc21
T/C [2]: 75 % of control
T/C [3]: 84 % of control and 97 % of control
T/C [4]: 86 % of control and 89 % of control
T/C [5]: 68 % of control and 80 % of control
T/C [6]: 73 % of control

CC1(C)CC(C)(c2ccccc2)c2ccccc21 (stereo not given)
T/C [8]: 97 % of control
T/C [9]: 87 % of control
T/C [10]: 90 % of control
T/C [11]: 65 % of control

O=C1C=Cc2ccc(O)cc2C1=O
T/C [12]: 71 % of control
T/C [13]: 72 % of control
T/C [14]: 74 % of control
T/C [15]: 88 % of control and 89 % of control
T/C [16]: 74 % of control

N#CCSc1nc(N)nc2nc[nH]c12
T/C (dose: 2.0 mg/kg/injection, vehicle: carboxymethylcellulose (CMC)): 87 % of control
T/C (dose: 4.0 mg/kg/injection, vehicle: carboxymethylcellulose (CMC)): 102 % of control
T/C [17]: 98 % of control
T/C [18]: 99 % of control

CCc1c(CC(=O)O)c2cc(C)ccc2n1Cc1ccc(Cl)cc1
T/C [2]: 70 % of control
T/C [3]: 96 % of control

c1ccc2c(c1)ccc1cc3c(ccc4ccccc43)cc12
T/C [8]: 64 % of control
T/C [9]: 88 % of control
T/C [10]: 86 % of control

O=c1[nH]cnc2n[nH]nc12
T/C [8]: 112 % of control
T/C [9]: 77 % of control
T/C [10]: 60 % of control
T/C [11]: 68 % of control

CS(=O)(=O)OCCCCCCCCCOS(C)(=O)=O
T/C [17]: 99 % of control
T/C [18]: 82 % of control

Fc1ccc(CSc2ncnc3c2ncn3C2CCCCO2)cc1 (stereo not given)
T/C (dose: 45.0 mg/kg/injection, vehicle: carboxymethylcellulose (CMC)): 102 % of control
T/C (dose: 90.0 mg/kg/injection, vehicle: carboxymethylcellulose (CMC)): 111 % of control
T/C (dose: 360.0 mg/kg/injection, vehicle: carboxymethylcellulose (CMC)): 57 % of control and 78 % of control
T/C (dose: 720.0 mg/kg/injection, vehicle: carboxymethylcellulose (CMC)): 75 % of control

NC(N)=N/N=C/C=N/N=C(N)N
T/C [19]: 98 % of control

Nc1ccc2ccccc2c1N=Nc1ccccc1
T/C [8]: 73 % of control
T/C [9]: 79 % of control

Cc1ccc(N2CCN(CCCN3CCN(c4ccc(Cl)cc4)CC3)CC2)cc1
T/C (dose: 7.5 mg/kg/injection, vehicle: carboxymethylcellulose (CMC)): 94 % of control
T/C [20]: 98 % of control
T/C [19]: 94 % of control

CN(C)c1ccc(/C=C\c2ccnc3ccccc23)cc1
T/C [12]: 98 % of control
T/C [13]: 95 % of control
T/C [14]: 96 % of control
T/C [15]: 88 % of control and 89 % of control
T/C [16]: 67 % of control

O=C1N(Cl)C(=O)C(c2ccc(Cl)cc2)(c2ccc(Cl)cc2)N1Cl
T/C [20]: 67 % of control
T/C [19]: 85 % of control
T/C (dose: 60.0 mg/kg/injection, vehicle: carboxymethylcellulose (CMC)): 61 % of control

C=CCNc1ccc(C)cc1
T/C (dose: 85.0 mg/kg/injection, vehicle: saline): 64 % of control
T/C (dose: 125.0 mg/kg/injection, vehicle: saline): 91 % of control
T/C (dose: 185.0 mg/kg/injection, vehicle: saline): 78 % of control

CCCCCCCCCCCCCCCCC(C(=O)O)C(O)(CC(=O)O)C(=O)O (stereo not given)
T/C [21]: 78 % of control
T/C [22]: 87 % of control

CC(C)CCS(=O)(=O)OCCCCOS(=O)(=O)CCC(C)C
T/C [8]: 57 % of control
T/C [9]: 94 % of control
T/C [10]: 57 % of control
T/C [11]: 75 % of control

O=C(O)C1(NO)CCCC1
T/C (dose: 12.5 mg/kg/injection, vehicle: carboxymethylcellulose (CMC)): 76 % of control
T/C [7]: 108 % of control
T/C [2]: 104 % of control
T/C [3]: 80 % of control

CN(C)CCCN1c2ccccc2Sc2ccc(C(F)(F)F)cc21
T/C [1]: 84 % of control

COc1ccc(-c2c(CC(=O)O)c3cc(OC)ccc3n2Cc2ccc(Cl)cc2)cc1
T/C [9]: 90 % of control
T/C [10]: 100 % of control
T/C [11]: 100 % of control

CC(Cl)CN(Cc1cc(O)c(CN(CC(C)Cl)CC(C)Cl)cc1O)CC(C)Cl (stereo not given)
T/C [8]: 64 % of control

O=c1[nH]c2cc(Cl)c(Cl)cc2o1
T/C (dose: 9.5 mg/kg/injection, vehicle: carboxymethylcellulose (CMC)): 119 % of control
T/C [21]: 104 % of control
T/C [22]: 95 % of control and 107 % of control
T/C [23]: 98 % of control

[I][Hg][CH2]C1COCC([CH2][Hg][I])O1.[I][Hg][CH2]C1COCC([CH2][Hg][I])O1 (stereo not given)
T/C [15]: 83 % of control
T/C [16]: 109 % of control
T/C [24]: 91 % of control

NC(=O)c1ccc(NC(=O)CCC(=O)Nc2ccc(C(N)=O)cn2)nc1
T/C [12]: 92 % of control
T/C [13]: 72 % of control

c1ccc(CSc2ncnc3nc[nH]c23)nc1
T/C (dose: 18.0 mg/kg/injection, vehicle: carboxymethylcellulose (CMC)): 85 % of control
T/C (dose: 37.0 mg/kg/injection, vehicle: carboxymethylcellulose (CMC)): 89 % of control
T/C [23]: 90 % of control and 104 % of control
T/C (dose: 150.0 mg/kg/injection, vehicle: carboxymethylcellulose (CMC)): 86 % of control

Cn1c(=O)c2[nH]c(CCCc3nc4c([nH]3)c(=O)n(C)c(=O)n4C)nc2n(C)c1=O
T/C [16]: 101 % of control
T/C [24]: 68 % of control

O=C(NO)c1ccncc1
T/C (dose: 250.0 mg/kg/injection, vehicle: saline): 80 % of control
T/C (dose: 500.0 mg/kg/injection, vehicle: saline): 78 % of control
T/C (dose: 750.0 mg/kg/injection, vehicle: saline): 76 % of control

CCn1cnc2c(=S)nc(N)[nH]c21
T/C (dose: 3.0 mg/kg/injection, vehicle: carboxymethylcellulose (CMC)): 115 % of control
T/C (dose: 7.0 mg/kg/injection, vehicle: carboxymethylcellulose (CMC)): 107 % of control
T/C [20]: 59 % of control and 70 % of control

CSc1ncnc2c1ncn2C1CCCO1 (stereo not given)
T/C (dose: 12.0 mg/kg/injection, vehicle: carboxymethylcellulose (CMC)): 70 % of control
T/C [7]: 69 % of control
T/C [2]: 72 % of control and 79 % of control
T/C [3]: 63 % of control and 76 % of control
